The values below come from patent publication US20240208898A1, “ENAMINE N-OXIDES: SYNTHESIS AND APPLICATION TO HYPOXIA-RESPONSIVE PRODRUGS AND IMAGING AGENTS” (DANA-FARBER CANCER INSTITUTE, INC., priority 2021, published 2024).

Experiment [1] relates to BxPC-3 pancreatic cancer cell line. The experiment in a line: In-gel fluorescence imaging of cells labeled by enamine N-oxides. It counts as cell-based. As for the experimental part: Cells were seeded at a density of 200,000 cells per well in media [2 mL, RPMI (A431, H460, HeLa, Bx-PC3, MDA-MB-231) or DMEM (U251) supplemented with 5% heat-inactivated human serum (Sigma), penicillin (100 units/mL), and streptomycin (0.1 mg/mL)] in 6-well plates. Cells were incubated at 37° C. under ambient atmosphere with 5% CO2. After 24 h, the media was aspirated and replaced with fresh media [1 mL, RPMI (A431, H460, HeLa, Bx-PC3, MDA-MB-231) or DMEM (U251) supplemented with 5% heat-inactivated human serum, penicillin (100 units/mL), and streptomycin (0.1 mg/mL)] containing enamine N-oxide probe (200 mM in ethanol; 10 μM final concentration). Plates were then incubated at 37° C. under ambient (20% pO2) or various oxygenated conditions (5%, 1%, or 0.1% pO2) with 5% CO2. Oxygenated conditions were maintained using a hypoxia chamber (ProOx C21, Biospherix) in a cell culture incubator. […] PBS (1 mL) was then added to each well and cells were scraped off with a cell scraper. The cell suspensions were placed into microcentrifuge tubes and pelleted by spinning at 10,000×g for 5 minutes at 4° C. The supernatant was then removed, and the pellet was dissolved with an SDS solution (100 μL, 1% SDS in 50 mM Tris buffer, pH 8.0). The protein concentration was determined by BCA assay following the manufacturer's protocol (Pierce). The sample was then labeled using the copper-catalyzed azide-alkyne cycloaddition (CuAAC). […] The dried pellet was then resuspended in an SDS solution (50 μL, 1% SDS in 50 mM Tris, pH 8.0), and the protein concentration was determined by BCA assay. […] In-gel fluorescence was visualized by a laser scanner (Typhoon™ FLA 9500, GE) and quantified using ImageJ software. […] Detection was mediated by an anti-rabbit IR680-dye conjugated secondary antibody (LI-COR Biosciences, 925-68071) and imaged using a fluorescence scanner (Odyssey CLx, LI-COR Biosciences).

Experiment [2] relates to BxPC-3 xenograft mouse model. Put plainly: Near infrared imaging in live mice. It counts as in vivo. The conditions noted are these: intraperitoneal 20 mg/kg. The procedure: All animal experiments were performed according to procedures and protocols approved by the Dana-Farber Cancer Institute Institutional Animal Care and Use Committee. Bx-PC3 cells were grown to confluency in antibiotic-free RPMI supplemented with 10% FBS, trypsinized, and washed three times with ice cold PBS (50 mL). Cells were resuspended in PBS at a concentration of 1.0×10^7 cells per 100 μL. 8-week old, female, homozygous NU/J mice (Jackson Laboratory) were subcutaneously injected with 1.0×10^7 Bx-PC3 cells over the right hind flank under isoflurane anesthesia. Experiments were performed when tumors reached 1000 mm^3 in size. Mice were intraperitoneally injected with a solution of Si700-enamine N-oxide probe 42 (20 mg/kg, 7.93 mM in 0.9% saline). Under isoflurane anesthesia, mice were then imaged with a Xenogen IVIS 100 fluorescence imager using an excitation of 675 nm and emission of 720 nm at various time points (0 hours (before treatment), 6 hours, 24 hours and 30 hours (after treatment)). Mice were then intraperitoneally injected with a solution of Si700-enamine N-oxide probe 42 (20 mg/kg, 7.93 mM in 0.9% saline) 30 hours post injection. After 16 hours, mice were intraperitoneally injected with a bolus of pimonidazole solution (200 μL, 25.8 mM pimonidazole in 0.9% saline). […]

SMILES strings stand for the structures.

On to `C#CCCCCC(F)/C=C/[N+]([O-])(CC)CC` (stereo not shown) [probe 39, (E)-N,N-diethyl-3-fluoronon-1-en-8-yn-1-amine oxide], for which the “labeling in cell culture (oxygen dependence)” value in experiment [1] (BxPC-3, 48 h) is reported as “oxygen-dependent labeling”. The “oxygen tension of probe activation” value in experiment [1] (BxPC-3, over 48 h, CuAAC with TAMRA-azide) is “ca. 1 % pO2”.
As to `C#CCN(CCCCCC(F)/C=C/[N+]([O-])(CC)CC)C(=O)c1ccc(C2=c3cc4c(cc3[Si](C)(C)c3cc5c(cc32)CCN5C)=[N+](C)CC4)c(C)c1` (stereo not shown) [probe 42, Si700-enamine N-oxide], the “near-infrared fluorescence imaging: accumulation in the tumor” value in experiment [2] was “preferential accumulation of enamine N-oxide probe 42 in the tumor”. Besides, in experiment [1] (Bx-PC3 cells, 10 μM, 12 h, in-gel fluorescence after CuAAC with TAMRA-azide), the “labeling of cells under normoxia and hypoxia” value is “labeled Bx-PC3 cells in a hypoxia-dependent manner”.
